Molecules are shown by their SMILES. Where two headings read alike, the source gives them in different places.

Series [1] can be described thus: Non-specific toxicity control on human MRC-5 cells. It is filed as cell-based.
Series [2] relates to P. falciparum. The series can be described thus: Antimalarial screening against asexual blood stage P. falciparum. It is filed as cell-based, Plasmodium falciparum. The note with it: for IC50: Plasmodium falciparum, potency against asexual blood stage of P. falciparum, average values n ≥ 2, s.d. < 0.3, read-out: P. fal pIC50 (converted); for fold decreased antimalarial potency compared to 3 / fold potency decrease compared with 30: P. falciparum; for fold decreased antimalarial potency compared to 3: relative to 3; for fold potency decrease compared with 30: relative to 30. How it is done:
Previously, Howard et al. reported (sub)micromolar activity against P. falciparum for a series of BIPPO analogs with benzyl substituents. To further understand the structure–activity relationship (SAR) of this interesting scaffold, close analogs of 3 with substituents at R^1–R^4 positions were tested against P. falciparum and human MRC-5 cells as the control for non-specific toxicity (Table 1).
The assay for antimalarial activity was carried out as described in detail in Pereira et al..

Setting [3] is: human MRC-5 cells, average values n ≥ 2, s.d. < 0.3, read-out: MRC-5 pIC50 (converted).

Take `CC(C)c1n[nH]c2c(=O)[nH]c(C(C)c3ccccc3)nc12` (racemic) [compound 13, (racemic)-3-Isopropyl-5-(1-phenylethyl)-1,6-dihydro-7H-pyrazolo[4,3-d]pyrimidin-7-one]: the IC50 in series [1] (setting [3]) is greater than 63.1 µM; in series [2], 1.26 µM.

Consider `COC(c1ccccc1)c1nc2c(C(C)C)n[nH]c2c(=O)[nH]1` (racemic) [compound 15, (racemic)-3-Isopropyl-5-(methoxy(phenyl)methyl)-1,6-dihydro-7H-pyrazolo[4,3-d]pyrimidin-7-one], for which the IC50 in series [1] (setting [3]) is greater than 63.1 µM. In series [2], the “fold decreased antimalarial potency compared to 3” value is on record as 5- to 25 fold and the IC50 is 7.94 µM.

With `CC(C)c1nn(C)c2c(=O)[nH]c(Cc3ccccc3)nc12` [37a, 5-Benzyl-3-isopropyl-1-methyl-1,6-dihydro-7H-pyrazolo[4,3-d]pyrimidin-7-one], the figures for the IC50 in series [1] (setting [3]) and in series [2] were greater than 63.1 µM and 10 µM, respectively.

Turning to `CC(C)c1c2nc(Cc3ccccc3)[nH]c(=O)c2nn1C` [37b, 5-Benzyl-3-isopropyl-2-methyl-2,6-dihydro-7H-pyrazolo[4,3-d]pyrimidin-7-one], the IC50 is greater than 63.1 µM in series [1] (setting [3]) and 5.01 µM in series [2].

On to `CC(C)c1nn(C)c2c(=O)[nH]c(C34CC5CC(CC(C5)C3)C4)nc12` [38a, 5-(Adamantan-1-yl)-3-isopropyl-1-methyl-1,6-dihydro-7H-pyrazolo[4,3-d]pyrimidin-7-one], for which the IC50 in series [1] (setting [3]) and in series [2] was greater than 63.1 µM throughout. In addition, in series [2], the “fold potency decrease compared with 30” value is “more than 400 fold”.

For `CC(C)c1c2nc(C34CC5CC(CC(C5)C3)C4)[nH]c(=O)c2nn1C` [38b, 5-(Adamantan-1-yl)-3-isopropyl-2-methyl-2,6-dihydro-7H-pyrazolo[4,3-d]pyrimidin-7-one], in series [1] (setting [3]), the IC50 was greater than 63.1 µM. Moreover, in series [2], the “fold potency decrease compared with 30” value is “more than 15 fold” and the IC50 was 2.51 µM.

With `CC(C)(C)c1n[nH]c2c(=O)[nH]c(Cc3ccccc3)nc12` [46a, 5-Benzyl-3-(tert-butyl)-1,6-dihydro-7H-pyrazolo[4,3-d]pyrimidin-7-one], the IC50 in series [1] (setting [3]) was 39.8 µM; in series [2] it was 1.58 µM.

For the compound `O=c1[nH]c(Cc2ccccc2)nc2c(C3CCCC3)n[nH]c12` [46b, 5-Benzyl-3-cyclopentyl-1,6-dihydro-7H-pyrazolo[4,3-d]pyrimidin-7-one], the IC50 in series [1] (setting [3]) is greater than 63.1 µM; in series [2], 1.58 µM.

As for `CC(C)c1n[nH]c2c(=O)[nH]c(Cc3ccccc3)nc12` [compound 3, 5-Benzyl-3-isopropyl-1,6-dihydro-7H-pyrazolo[4,3-d]pyrimidin-7-one], the IC50 was greater than 63.1 µM in series [1] (setting [3]) and 1.26 µM in series [2].

Consider `CC(C)c1n[nH]c2c(=O)[nH]c(Cc3ccncc3)nc12` [compound 4, 3-Isopropyl-5-(pyridin-4-ylmethyl)-1,6-dihydro-7H-pyrazolo[4,3-d]pyrimidin-7-one], for which the IC50 in series [1] (setting [3]) was greater than 63.1 µM. Further, in series [2], the “fold decreased antimalarial potency compared to 3” value is recorded as “six” and the IC50 was 7.94 µM.

Consider `CC(C)c1n[nH]c2c(=O)[nH]c(-c3ccccc3)nc12` [compound 6, 3-Isopropyl-5-phenyl-1,6-dihydro-7H-pyrazolo[4,3-d]pyrimidin-7-one], for which the IC50 in series [1] (setting [3]) is greater than 63.1 µM; in series [2], 31.6 µM. In addition, the “fold decreased antimalarial potency compared to 3” value in series [2] is on record as 5- to 25 fold.

Consider `CC(C)c1n[nH]c2c(=O)[nH]c(-c3ccc(N4CCN(C)CC4)cc3)nc12` [compound 7, 3-Isopropyl-5-(4-(4-methylpiperazin-1-yl)phenyl)-1,6-dihydro-7H-pyrazolo[4,3-d]pyrimidin-7-one], for which the IC50 in series [1] (setting [3]) was greater than 39.8 µM; in series [2], 7.94 µM.

Consider `CC(C)c1n[nH]c2c(=O)[nH]c(-c3ccc(N4CCCCC4)cc3)nc12` [compound 8, 3-Isopropyl-5-(4-(piperidin-1-yl)phenyl)-1,6-dihydro-7H-pyrazolo[4,3-d]pyrimidin-7-one], for which the IC50 in series [1] (setting [3]) was greater than 63.1 µM; in series [2], greater than 50.1 µM.

Consider `CC(C)c1n[nH]c2c(=O)[nH]c(-c3cscn3)nc12` [compound 9, 3-Isopropyl-5-(thiazol-4-yl)-1,6-dihydro-7H-pyrazolo[4,3-d]pyrimidin-7-one], for which the IC50 in series [1] (setting [3]) and in series [2] was greater than 63.1 µM throughout.

For the compound `CC(C)c1n[nH]c2c(=O)[nH]c(-c3ccc(=O)n(C)c3)nc12` [compound 10, 3-Isopropyl-5-(1-methyl-6-oxo-1,6-dihydropyridin-3-yl)-1,6-dihydro-7H-pyrazolo[4,3-d]pyrimidin-7-one], the IC50 in series [1] (setting [3]) and in series [2] was greater than 63.1 µM throughout.

On to `CC(C)c1n[nH]c2c(=O)[nH]c(-c3ccn(C)c(=O)c3)nc12` [compound 11, 3-Isopropyl-5-(1-methyl-2-oxo-1,2-dihydropyridin-4-yl)-1,6-dihydro-7H-pyrazolo[4,3-d]pyrimidin-7-one], for which the IC50 in series [1] (setting [3]) and in series [2] was greater than 63.1 µM each time.

As for `CC(C)c1n[nH]c2c(=O)[nH]c(CCc3ccccc3)nc12` [compound 12, 3-Isopropyl-5-phenethyl-1,6-dihydro-7H-pyrazolo[4,3-d]pyrimidin-7-one], the IC50 in series [1] (setting [3]) was greater than 63.1 µM; in series [2], 6.31 µM. In addition, the “fold decreased antimalarial potency compared to 3” value in series [2] was 5- to 25 fold.

Consider `CC(C)c1n[nH]c2c(=O)[nH]c(C(C)(C)c3ccccc3)nc12` [compound 14, 3-Isopropyl-5-(2-phenylpropan-2-yl)-1,6-dihydro-7H-pyrazolo[4,3-d]pyrimidin-7-one], for which the IC50 in series [1] (setting [3]) was greater than 63.1 µM; in series [2] it was 1 µM.

As for `CC(C)c1n[nH]c2c(=O)[nH]c(C3(c4ccccc4)CC3)nc12` [compound 16, 3-Isopropyl-5-(1-phenylcyclopropyl)-1,6-dihydro-7H-pyrazolo[4,3-d]pyrimidin-7-one], the IC50 in series [1] (setting [3]) was greater than 63.1 µM. In series [2], the “fold decreased antimalarial potency compared to 3” value is given as 5- to 25 fold and the IC50 was 3.16 µM.

`CC(C)c1n[nH]c2c(=O)[nH]c(C3(c4ccccc4)CCC3)nc12` [compound 17, 3-Isopropyl-5-(1-phenylcyclobutyl)-1,6-dihydro-7H-pyrazolo[4,3-d]pyrimidin-7-one]: the IC50 is 25.1 µM in series [1] (setting [3]) and 1.58 µM in series [2].

With `CC(C)c1n[nH]c2c(=O)[nH]cnc12` [compound 18, 3-Isopropyl-1,6-dihydro-7H-pyrazolo[4,3-d]pyrimidin-7-one], the IC50 in series [1] (setting [3]) and in series [2] was greater than 63.1 µM in each case.

As for `Cc1nc2c(C(C)C)n[nH]c2c(=O)[nH]1` [compound 19, 3-Isopropyl-5-methyl-1,6-dihydro-7H-pyrazolo[4,3-d]pyrimidin-7-one], the IC50 in series [1] (setting [3]) was greater than 63.1 µM; in series [2], 39.8 µM.

Regarding `CC(C)c1nc2c(C(C)C)n[nH]c2c(=O)[nH]1` [compound 20, 3,5-Diisopropyl-1,6-dihydro-7H-pyrazolo[4,3-d]pyrimidin-7-one], the IC50 in series [1] (setting [3]) was greater than 63.1 µM; in series [2] it was 3.98 µM.

`CCCCc1nc2c(C(C)C)n[nH]c2c(=O)[nH]1` [compound 21, 5-Butyl-3-isopropyl-1,6-dihydro-7H-pyrazolo[4,3-d]pyrimidin-7-one]: the IC50 in series [1] (setting [3]) was greater than 63.1 µM; in series [2], 1.26 µM.

As to `CC(C)c1n[nH]c2c(=O)[nH]c(C3CCCC3)nc12` [compound 22, 5-Cyclopentyl-3-isopropyl-1,6-dihydro-7H-pyrazolo[4,3-d]pyrimidin-7-one], the IC50 in series [1] (setting [3]) is greater than 63.1 µM; in series [2], 0.794 µM.

As for `CC(C)c1n[nH]c2c(=O)[nH]c(C3CCOCC3)nc12` [compound 24, 3-Isopropyl-5-(tetrahydro-2H-pyran-4-yl)-1,6-dihydro-7H-pyrazolo[4,3-d]pyrimidin-7-one], the figures for the IC50 in series [1] (setting [3]) and in series [2] were greater than 63.1 µM and 5.01 µM, respectively.

On to `CC(C)c1n[nH]c2c(=O)[nH]c(C3CCN(C)CC3)nc12` [compound 25, 3-Isopropyl-5-(1-methylpiperidin-4-yl)-1,6-dihydro-7H-pyrazolo[4,3-d]pyrimidin-7-one diformate], for which the IC50 in series [1] (setting [3]) and in series [2] was greater than 63.1 µM throughout.

On to `CC(C)c1n[nH]c2c(=O)[nH]c([C@H]3CC[C@@H](O)CC3)nc12` [compound 26, cis-5-(4-Hydroxycyclohexyl)-3-isopropyl-1,6-dihydro-7H-pyrazolo[4,3-d]pyrimidin-7-one], for which the IC50 in series [1] (setting [3]) was greater than 63.1 µM.

As for `CC(C)c1n[nH]c2c(=O)[nH]c([C@H]3CC[C@H](O)CC3)nc12` [compound 27, trans-5-(4-Hydroxycyclohexyl)-3-isopropyl-1,6-dihydro-7H-pyrazolo [4,3-d]pyrimidin-7-one], the IC50 in series [1] (setting [3]) was greater than 63.1 µM; in series [2] it was 5.01 µM.

For `CC(C)c1n[nH]c2c(=O)[nH]c(C3CCNCC3)nc12` [compound 32, 3-Isopropyl-5-(piperidin-4-yl)-1,6-dihydro-7H-pyrazolo[4,3-d]pyrimidin-7-one], the IC50 in series [1] (human) and in series [2] was greater than 63.1 µM in each case.

For the origin of these results see article PMC10343887, “Structural Optimization of BIPPO Analogs as Potent Antimalarials” (Molecules, 2023).
